The target in series [1] is 5-hydroxytryptamine receptor 6 (Homo sapiens, UniProt P50406). The series is classed as cell membranes, HeLa, Membrane. The settings on record: for IC50: hela; for pIC50: read-out: IC50; for pKi: read-out: Ki. As to all read-outs here: in other assays of this panel Not Active means under 50% inhibition at 10 µM.
For series [2], the target named is C-C chemokine receptor type 2 (Homo sapiens, UniProt P41597). The class given is cell membranes, CHO-K1, Membrane. The conditions noted are these: cho-k1. Also: in other assays of this panel Not Active means under 50% inhibition at 10 µM.
The target of series [3] is Beta-2 adrenergic receptor (Homo sapiens, UniProt P07550). As to the kind of experiment: DRUGMATRIX: Adrenergic beta2 radioligand binding (ligand: [3H] CGP-12177). The class given is cell membranes, CHO, Membrane. The settings on record: cho; Not Active = under 50% inhibition at 10 µM.
Series [4] in a line: DRUGMATRIX: Potassium Channel [KATP] radioligand binding (ligand: [3H] Glyburide). The conditions noted are these: hit-t15; Not Active = under 50% inhibition at 10 µM. The class given is cell membranes, Membrane.
Series [5] deals with Epidermal growth factor receptor (Homo sapiens, UniProt P00533). The series is described as follows: DRUGMATRIX: Protein Tyrosine Kinase, EGF Receptor enzyme inhibition (substrate: Poly(Glu:Tyr)). The series is classed as cell-based, Insect cells. The settings on record: Not Active = under 50% inhibition at 10 µM; for IC50: insect cells; for pIC50: read-out: IC50.
A further series deals with Cytochrome P450 2C9 (Homo sapiens, UniProt P11712). The conditions noted are these: bti-tn-5b1-4.

pIC50, pKi: −log10 of the molar value.

Chain of Epidermal growth factor receptor (P00533 whole entry): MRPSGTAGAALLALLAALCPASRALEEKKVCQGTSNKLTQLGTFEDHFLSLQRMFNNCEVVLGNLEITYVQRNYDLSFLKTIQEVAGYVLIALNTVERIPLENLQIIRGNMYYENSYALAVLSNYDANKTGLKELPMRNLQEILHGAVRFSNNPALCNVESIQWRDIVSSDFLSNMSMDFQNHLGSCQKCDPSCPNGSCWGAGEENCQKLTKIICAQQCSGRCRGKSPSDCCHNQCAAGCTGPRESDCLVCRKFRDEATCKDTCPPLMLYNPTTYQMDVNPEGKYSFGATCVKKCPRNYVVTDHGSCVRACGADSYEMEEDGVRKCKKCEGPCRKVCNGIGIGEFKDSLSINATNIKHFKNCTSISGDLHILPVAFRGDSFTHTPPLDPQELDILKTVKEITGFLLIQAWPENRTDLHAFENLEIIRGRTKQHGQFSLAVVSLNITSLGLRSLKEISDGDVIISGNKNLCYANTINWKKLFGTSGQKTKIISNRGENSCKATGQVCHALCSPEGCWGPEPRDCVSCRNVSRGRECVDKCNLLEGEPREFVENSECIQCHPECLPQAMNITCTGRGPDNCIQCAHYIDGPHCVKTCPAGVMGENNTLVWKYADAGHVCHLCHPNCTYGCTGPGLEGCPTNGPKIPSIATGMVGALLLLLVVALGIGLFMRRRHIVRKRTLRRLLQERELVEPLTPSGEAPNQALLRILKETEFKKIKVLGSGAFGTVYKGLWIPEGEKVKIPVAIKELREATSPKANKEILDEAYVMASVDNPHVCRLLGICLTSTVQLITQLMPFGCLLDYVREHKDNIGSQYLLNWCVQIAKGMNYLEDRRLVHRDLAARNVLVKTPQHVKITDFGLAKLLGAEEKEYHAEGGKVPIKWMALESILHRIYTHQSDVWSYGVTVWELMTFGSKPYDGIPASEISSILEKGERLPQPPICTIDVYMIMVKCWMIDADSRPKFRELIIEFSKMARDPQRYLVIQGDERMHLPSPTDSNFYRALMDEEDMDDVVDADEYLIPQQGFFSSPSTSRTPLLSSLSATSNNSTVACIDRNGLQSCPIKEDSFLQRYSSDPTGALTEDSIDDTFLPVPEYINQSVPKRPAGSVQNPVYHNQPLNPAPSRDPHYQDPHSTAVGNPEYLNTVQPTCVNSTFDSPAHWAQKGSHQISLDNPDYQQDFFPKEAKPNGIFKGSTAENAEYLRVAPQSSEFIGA
Chain of Beta-2 adrenergic receptor (P07550 whole entry): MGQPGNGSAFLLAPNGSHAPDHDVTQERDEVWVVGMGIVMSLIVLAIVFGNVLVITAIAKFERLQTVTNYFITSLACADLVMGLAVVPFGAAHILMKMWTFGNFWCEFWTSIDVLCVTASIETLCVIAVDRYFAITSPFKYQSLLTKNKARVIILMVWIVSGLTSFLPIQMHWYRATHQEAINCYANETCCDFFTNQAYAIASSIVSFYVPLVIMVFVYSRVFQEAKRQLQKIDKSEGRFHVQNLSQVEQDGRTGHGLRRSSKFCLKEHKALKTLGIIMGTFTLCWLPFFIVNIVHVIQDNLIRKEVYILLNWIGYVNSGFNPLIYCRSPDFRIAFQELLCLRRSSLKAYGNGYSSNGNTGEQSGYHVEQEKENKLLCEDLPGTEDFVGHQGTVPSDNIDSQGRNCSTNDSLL
Chain of C-C chemokine receptor type 2 (P41597 whole entry): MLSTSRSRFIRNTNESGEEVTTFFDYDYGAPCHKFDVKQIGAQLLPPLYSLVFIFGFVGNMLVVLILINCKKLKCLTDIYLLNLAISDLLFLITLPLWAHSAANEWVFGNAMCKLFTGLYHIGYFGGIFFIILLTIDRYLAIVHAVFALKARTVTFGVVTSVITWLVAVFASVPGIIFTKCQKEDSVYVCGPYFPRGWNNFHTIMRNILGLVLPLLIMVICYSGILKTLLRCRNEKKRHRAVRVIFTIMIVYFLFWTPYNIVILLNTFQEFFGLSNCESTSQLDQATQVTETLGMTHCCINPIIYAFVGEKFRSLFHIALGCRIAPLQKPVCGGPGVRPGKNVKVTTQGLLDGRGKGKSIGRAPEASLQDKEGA
Chain of 5-hydroxytryptamine receptor 6 (P50406 whole entry): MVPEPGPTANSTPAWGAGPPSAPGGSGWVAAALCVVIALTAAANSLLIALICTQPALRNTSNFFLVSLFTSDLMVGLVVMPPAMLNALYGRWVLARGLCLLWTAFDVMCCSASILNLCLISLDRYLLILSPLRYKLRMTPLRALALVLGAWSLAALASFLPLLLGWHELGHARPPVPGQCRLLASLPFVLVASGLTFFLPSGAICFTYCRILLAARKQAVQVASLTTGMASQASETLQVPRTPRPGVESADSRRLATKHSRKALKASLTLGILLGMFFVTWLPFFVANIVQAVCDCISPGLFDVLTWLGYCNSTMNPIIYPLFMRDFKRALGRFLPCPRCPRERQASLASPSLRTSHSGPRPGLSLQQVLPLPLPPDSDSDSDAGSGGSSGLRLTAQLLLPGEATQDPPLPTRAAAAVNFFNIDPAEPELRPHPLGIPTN
Chain of Cytochrome P450 2C9 (P11712 whole entry): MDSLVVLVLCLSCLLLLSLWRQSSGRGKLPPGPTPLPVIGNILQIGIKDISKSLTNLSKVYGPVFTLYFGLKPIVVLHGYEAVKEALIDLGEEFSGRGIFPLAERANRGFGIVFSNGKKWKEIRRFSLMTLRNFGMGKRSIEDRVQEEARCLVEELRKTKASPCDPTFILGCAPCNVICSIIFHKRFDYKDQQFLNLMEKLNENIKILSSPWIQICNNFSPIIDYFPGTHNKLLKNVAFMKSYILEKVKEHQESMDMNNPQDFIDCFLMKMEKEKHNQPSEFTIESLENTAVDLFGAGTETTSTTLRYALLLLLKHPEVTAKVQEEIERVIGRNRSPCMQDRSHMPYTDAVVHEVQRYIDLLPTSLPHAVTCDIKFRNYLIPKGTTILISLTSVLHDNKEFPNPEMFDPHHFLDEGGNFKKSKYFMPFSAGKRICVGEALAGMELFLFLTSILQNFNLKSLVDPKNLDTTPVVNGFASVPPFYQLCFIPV

`COc1cc(N)nc2[nH]c(-c3ccc(F)cc3)c(-c3ccncc3)c12`: the IC50 entry in series [1], in series [2], in series [3] and in series [4] was “Not Active” in each case. In addition, the Ki result in series [4] is “Not Active”.

In the case of `CNS(=O)(=O)Cc1ccc2[nH]cc(CCN(C)C)c2c1`, the IC50 entry (in series [1]; in series [2]; in series [5]; in series [3]; on Cytochrome P450 2C9; in series [4]) was “Not Active” in each case. The Ki entry (on Cytochrome P450 2C9; in series [4]) was “Not Active” throughout.

Regarding `CCCc1nn(C)c2c(=O)[nH]c(-c3cc(S(=O)(=O)N4CCN(C)CC4)ccc3OCC)nc12`, the IC50 result (in series [1]; in series [2]; in series [5]; in series [3]; on Cytochrome P450 2C9; in series [4]) was “Not Active” in each case. For the same molecule, the Ki entry (at Cytochrome P450 2C9; in series [4]) was “Not Active” each time.

With `COc1ccc(/C=C/C(=O)Nc2ccccc2C(=O)O)cc1OC`, the IC50 result (in series [1]; in series [2]; in series [5]; in series [3]; at Cytochrome P450 2C9; in series [4]) was “Not Active” each time. The Ki entry (at Cytochrome P450 2C9; in series [4]) was “Not Active” each time.

With `CCOC(N)=O`, the IC50 entry (in series [1]; in series [2]; in series [5]; in series [3]; on Cytochrome P450 2C9; in series [4]) was “Not Active” each time. In addition, the Ki entry (at Cytochrome P450 2C9; in series [4]) was “Not Active” in each case.

For the molecule `CC(=O)Nc1nnc(S(N)(=O)=O)s1` [ACETAZOLAMIDE], the IC50 result (in series [1]; in series [2]; in series [5]; in series [3]; at Cytochrome P450 2C9) was “Not Active” each time. Also, at Cytochrome P450 2C9, the Ki result is on record as “Not Active”.

For the molecule `O=c1[nH]c2ccccc2n1CCCN1CCC(n2c(=O)[nH]c3cc(Cl)ccc32)CC1` [DOMPERIDONE], the IC50 result in series [1], in series [2], in series [5] and in series [3] was “Not Active” in each case.

For `CC1=C(CC(=O)O)c2cc(F)ccc2/C1=C\c1ccc(S(C)(=O)=O)cc1` [EXISULIND], the IC50 entry (in series [1]; in series [2]; in series [5]; in series [3]; on Cytochrome P450 2C9; in series [4]) was “Not Active” each time. Moreover, the Ki result (on Cytochrome P450 2C9; in series [4]) was “Not Active” in each case.

With `CC(C)OC(=O)C(C)(C)Oc1ccc(C(=O)c2ccc(Cl)cc2)cc1` [FENOFIBRATE], the IC50 result (in series [1]; in series [2]; in series [5]; in series [3]; against Cytochrome P450 2C9) was “Not Active” in each case. For the same molecule, the Ki entry on Cytochrome P450 2C9 is given as “Not Active”.

With `OCCN1CCN(CCCN2c3ccccc3Sc3ccc(C(F)(F)F)cc32)CC1` [FLUPHENAZINE], the pIC50 (as a rule, the IC50 on a negative log10 scale, so that one unit is a factor of ten) was 7.28 in series [1] and 4.40 in series [5]. Further, the pKi – broadly, the negative decadic logarithm of the Ki, by convention in mol/L – in series [1] is 7.62. The IC50 entry in series [2] and in series [3] was “Not Active” in each case.

Regarding `CN1C2CCCC1CC(NC(=O)c1nn(C)c3ccccc13)C2` (stereo unspecified) [GRANISETRON], the IC50 entry (in series [1]; in series [2]; in series [5]; in series [3]; at Cytochrome P450 2C9) was “Not Active” each time. In addition, the Ki result at Cytochrome P450 2C9 is on record as “Not Active”.

As for `Nc1nc2c(c(=O)[nH]1)N(C=O)C(CNc1ccc(C(=O)N[C@@H](CCC(=O)O)C(=O)O)cc1)CN2` (stereo partly specified) [LEUCOVORIN], the IC50 result (in series [1]; in series [2]; in series [5]; in series [3]; on Cytochrome P450 2C9; in series [4]) was “Not Active” in each case. The Ki result (at Cytochrome P450 2C9; in series [4]) was “Not Active” in each case.

Turning to `CC[C@@H](CO)NC(=O)[C@@H]1C=C2c3cccc4c3c(cn4C)C[C@H]2N(C)C1` [METHYSERGIDE], in series [1], the pIC50 was 6.79. Also, the pKi in series [1] was 7.12. Also, the IC50 result (in series [2]; in series [5]; in series [3]; against Cytochrome P450 2C9) was “Not Active” throughout. Also, on Cytochrome P450 2C9, the Ki entry was “Not Active”.

As for `CCN(CC)CC#CCOC(=O)C(O)(c1ccccc1)C1CCCCC1` (stereo unspecified) [OXYBUTYNIN], the IC50 result (in series [1]; in series [2]; in series [5]; in series [3]; on Cytochrome P450 2C9) was “Not Active” in each case. Further, the Ki result on Cytochrome P450 2C9 is “Not Active”.

Consider `CO[C@H]1C[C@@H]2CC[C@@H](C)[C@@](O)(O2)C(=O)C(=O)N2CCCC[C@H]2C(=O)O[C@H]([C@H](C)C[C@@H]2CC[C@@H](O)[C@H](OC)C2)CC(=O)[C@H](C)/C=C(\C)[C@@H](O)[C@@H](OC)C(=O)[C@H](C)C[C@H](C)/C=C/C=C/C=C/1C` [SIROLIMUS], for which the IC50 entry in series [1], in series [2], in series [5], in series [3] and in series [4] was “Not Active” each time. In addition, in series [4], the Ki result is reported as “Not Active”.

As for `C[C@]12CC[C@H]3[C@@H](CCC4=CC(=O)CC[C@@]43C)[C@@H]1CC[C@@H]2O` [TESTOSTERONE], the IC50 entry in series [1], in series [2], in series [5] and in series [3] was “Not Active” throughout.

For `CC(C)(C)NC[C@H](O)COc1nsnc1N1CCOCC1` [TIMOLOL], the IC50 result (in series [1]; in series [2]; in series [5]; on Cytochrome P450 2C9; in series [4]) was “Not Active” in each case. Moreover, the Ki result (at Cytochrome P450 2C9; in series [4]) was “Not Active” throughout.

Regarding `CCS(=O)(=O)CCn1c([N+](=O)[O-])cnc1C` [TINIDAZOLE], the IC50 result in series [1], in series [2], in series [5], in series [3] and in series [4] was “Not Active” in each case. Further, the Ki result in series [4] is given as “Not Active”.

With `O=c1n(CCCN2CCN(c3cccc(Cl)c3)CC2)nc2ccccn12` [TRAZODONE], the IC50 result (in series [1]; in series [2]; in series [5]; in series [3]; against Cytochrome P450 2C9) was “Not Active” each time. On Cytochrome P450 2C9, the Ki entry is listed as “Not Active”.

`COc1ccc(CN2CCNCC2)c(OC)c1OC` [TRIMETAZIDINE]: the IC50 result in series [1], in series [2], in series [5], in series [3] and in series [4] was “Not Active” each time. Also, the Ki result in series [4] is given as “Not Active”.

For the molecule `COc1cc(C(=O)NS(=O)(=O)c2ccccc2C)ccc1Cc1cn(C)c2ccc(NC(=O)OC3CCCC3)cc12` [ZAFIRLUKAST], the IC50 entry in series [1], in series [2], in series [3] and in series [4] was “Not Active” in each case. Besides, the pIC50 in series [5] was 5.24. Further, the Ki entry in series [4] was “Not Active”.

Regarding `Cc1cn([C@H]2C[C@H](N=[N+]=[N-])[C@@H](CO)O2)c(=O)[nH]c1=O` [ZIDOVUDINE], the IC50 result (in series [1]; in series [2]; in series [3]; against Cytochrome P450 2C9; in series [4]) was “Not Active” throughout. In addition, the Ki entry (on Cytochrome P450 2C9; in series [4]) was “Not Active” in each case.

The values are drawn from ChEMBL document CHEMBL1909046, “DrugMatrix in vitro pharmacology data”.
